# What was measured:
# clinical = test: clinical
# Experimental: Clinical Trial Outline. […] All solid tumor types are eligible for the trial. […] An expansion cohort was included at the RP2D level to confirm safety and tolerability of the combination. […] In Part 2, patients were treated by giving both agents twice daily (BID dosing schedule).
# Plasma samples were analyzed for AMXT 1501 concentration via a LC/MS^2 procedure (MI-0028-DB-AB; Agilux Laboratories, Worcester, Massachusetts), and the resulting concentration versus time data were used to estimate individual PK parameters using noncompartmental analysis (NCA).
# in vivo = conditions: BALB/c, mouse, 2.5 mg/kg
structure (smiles),measurement,setting,value
"CCCCCCCCCCCCCCCC(=O)NCCCC[C@@H](N)C(=O)NCCCNCCCCNCCCN [AMXT 1501, D-lys(palmitoyl)-spermine]",AUC(0-t),"clinical; human, plasma, oral, 1200 mg, AUC0-6 hr Median, Part 1 Cohort 4, 1200 mg QD, Cycle 1 Day 1",238 ng·h/mL
same,AUC(0-t),"clinical; human, plasma, oral, 1200 mg, AUC0-6 hr Median, Part 1 Cohort 4, 1200 mg QD, Cycle 1 Day 14",681 ng·h/mL
same,AUC(0-t),"clinical; human, plasma, oral, 1200 mg, AUC0-t Mean, Part 1 Cohort 4, 1200 mg QD, Cycle 1 Day 1",2730 ng·h/mL
same,AUC(0-t),"clinical; human, plasma, oral, 1200 mg, AUC0-t Mean, Part 1 Cohort 4, 1200 mg QD, Cycle 1 Day 14",4700 ng·h/mL
same,AUC(0-t),"clinical; human, plasma, oral, 1200 mg, AUC0-t Median, Part 1 Cohort 4, 1200 mg QD, Cycle 1 Day 1",831 ng·h/mL
same,AUC(0-t),"clinical; human, plasma, oral, 1200 mg, AUC0-t Median, Part 1 Cohort 4, 1200 mg QD, Cycle 1 Day 14",3490 ng·h/mL
same,Cmax,"clinical; human, plasma, oral, 1200 mg, Cmax Mean, Part 1 Cohort 4, 1200 mg QD, Cycle 1 Day 1",104 ng/mL
same,Cmax,"clinical; human, plasma, oral, 1200 mg, Cmax Mean, Part 1 Cohort 4, 1200 mg QD, Cycle 1 Day 14",276 ng/mL
same,Cmax,"clinical; human, plasma, oral, 1200 mg, Cmax Median, Part 1 Cohort 4, 1200 mg QD, Cycle 1 Day 1",71.2 ng/mL
same,Cmax,"clinical; human, plasma, oral, 1200 mg, Cmax Median, Part 1 Cohort 4, 1200 mg QD, Cycle 1 Day 14",227 ng/mL
same,Tmax,"clinical; human, plasma, oral, 1200 mg, Tmax Mean, Part 1 Cohort 4, 1200 mg QD, Cycle 1 Day 1",11.3 h
same,Tmax,"clinical; human, plasma, oral, 1200 mg, Tmax Mean, Part 1 Cohort 4, 1200 mg QD, Cycle 1 Day 14",6 h
same,Tmax,"clinical; human, plasma, oral, 1200 mg, Tmax Median, Part 1 Cohort 4, 1200 mg QD, Cycle 1 Day 1",6 h
same,Tmax,"clinical; human, plasma, oral, 1200 mg, Tmax Median, Part 1 Cohort 4, 1200 mg QD, Cycle 1 Day 14",6 h
same,AUC,"clinical; human, plasma, oral, 1800 mg",14200 ng·h/mL
same,AUC(0-t),"clinical; human, plasma, oral, 1800 mg, AUC0-6 hr Mean, Part 1 Cohort 5, 1800 mg QD, Cycle 1 Day 1",750 ng·h/mL
same,AUC(0-t),"clinical; human, plasma, oral, 1800 mg, AUC0-6 hr Mean, Part 1 Cohort 5, 1800 mg QD, Cycle 1 Day 14",3110 ng·h/mL
same,AUC(0-t),"clinical; human, plasma, oral, 1800 mg, AUC0-6 hr Mean, Part 1 Cohort 5, 1800 mg QD, Cycle 2 Day 14, n=1",7240 ng·h/mL
same,AUC(0-t),"clinical; human, plasma, oral, 1800 mg, AUC0-6 hr Median, Part 1 Cohort 5, 1800 mg QD, Cycle 1 Day 1",662 ng·h/mL
same,AUC(0-t),"clinical; human, plasma, oral, 1800 mg, AUC0-6 hr Median, Part 1 Cohort 5, 1800 mg QD, Cycle 1 Day 14",3020 ng·h/mL
same,AUC(0-t),"clinical; human, plasma, oral, 1800 mg, AUC0-6 hr Median, Part 1 Cohort 5, 1800 mg QD, Cycle 2 Day 14, n=1",7240 ng·h/mL
same,AUC(0-t),"clinical; human, plasma, oral, 1800 mg, AUC0-t Mean, Part 1 Cohort 5, 1800 mg QD, Cycle 1 Day 1",10200 ng·h/mL
same,AUC(0-t),"clinical; human, plasma, oral, 1800 mg, AUC0-t Mean, Part 1 Cohort 5, 1800 mg QD, Cycle 1 Day 14",14200 ng·h/mL
same,AUC(0-t),"clinical; human, plasma, oral, 1800 mg, AUC0-t Mean, Part 1 Cohort 5, 1800 mg QD, Cycle 2 Day 14, n=1",33700 ng·h/mL
same,AUC(0-t),"clinical; human, plasma, oral, 1800 mg, AUC0-t Median, Part 1 Cohort 5, 1800 mg QD, Cycle 1 Day 1",12700 ng·h/mL
same,AUC(0-t),"clinical; human, plasma, oral, 1800 mg, AUC0-t Median, Part 1 Cohort 5, 1800 mg QD, Cycle 1 Day 14",12800 ng·h/mL
same,AUC(0-t),"clinical; human, plasma, oral, 1800 mg, AUC0-t Median, Part 1 Cohort 5, 1800 mg QD, Cycle 2 Day 14, n=1",33700 ng·h/mL
same,Cmax,"clinical; human, plasma, oral, 1800 mg, Cmax Mean, Part 1 Cohort 5, 1800 mg QD, Cycle 1 Day 1",367 ng/mL
same,Cmax,"clinical; human, plasma, oral, 1800 mg, Cmax Mean, Part 1 Cohort 5, 1800 mg QD, Cycle 1 Day 14",794 ng/mL
same,Cmax,"clinical; human, plasma, oral, 1800 mg, Cmax Mean, Part 1 Cohort 5, 1800 mg QD, Cycle 2 Day 14, n=1",1950 ng/mL
same,Cmax,"clinical; human, plasma, oral, 1800 mg, Cmax Median, Part 1 Cohort 5, 1800 mg QD, Cycle 1 Day 1",374 ng/mL
same,Cmax,"clinical; human, plasma, oral, 1800 mg, Cmax Median, Part 1 Cohort 5, 1800 mg QD, Cycle 1 Day 14",766 ng/mL
same,Cmax,"clinical; human, plasma, oral, 1800 mg, Cmax Median, Part 1 Cohort 5, 1800 mg QD, Cycle 2 Day 14, n=1",1950 ng/mL
same,Tmax,"clinical; human, plasma, oral, 1800 mg, Tmax Mean, Part 1 Cohort 5, 1800 mg QD, Cycle 1 Day 14",5.5 h
same,Tmax,"clinical; human, plasma, oral, 1800 mg, Tmax Mean, Part 1 Cohort 5, 1800 mg QD, Cycle 2 Day 14, n=1",6 h
same,Tmax,"clinical; human, plasma, oral, 1800 mg, Tmax Median, Part 1 Cohort 5, 1800 mg QD, Cycle 1 Day 1",6 h
same,Tmax,"clinical; human, plasma, oral, 1800 mg, Tmax Median, Part 1 Cohort 5, 1800 mg QD, Cycle 1 Day 14",6 h
same,Tmax,"clinical; human, plasma, oral, 1800 mg, Tmax Median, Part 1 Cohort 5, 1800 mg QD, Cycle 2 Day 14, n=1",6 h
same,Cmax,"clinical; human, plasma, oral, 1800 mg, average Cmax, plasma AMXT 1501, Part 1 Cohort 5, 1,800 mg, repeat dosing Day 14, n=4",794 ng/mL
same,AUC(0-t),"clinical; human, plasma, oral, AUC0-6 hr Mean, Part 1 Cohort 1, 80 mg QD, Cycle 1 Day 28, +DFMO 500 mg/day",60.5 ng·h/mL
same,AUC(0-t),"clinical; human, plasma, oral, AUC0-6 hr Mean, Part 1 Cohort 2, 160 mg QD, Cycle 1 Day 28, +DFMO 500 mg/day",88.6 ng·h/mL
same,AUC(0-t),"clinical; human, plasma, oral, AUC0-6 hr Mean, Part 1 Cohort 3, 400 mg QD, Cycle 1 Day 28, +DFMO 500 mg/day",234 ng·h/mL
same,AUC(0-t),"clinical; human, plasma, oral, AUC0-6 hr Mean, Part 1 Cohort 5, 1800 mg QD, Cycle 1 Day 28, +DFMO 500 mg/day",1860 ng·h/mL
same,AUC(0-t),"clinical; human, plasma, oral, AUC0-6 hr Median, Part 1 Cohort 1, 80 mg QD, Cycle 1 Day 28, +DFMO 500 mg/day",62.9 ng·h/mL
same,AUC(0-t),"clinical; human, plasma, oral, AUC0-6 hr Median, Part 1 Cohort 2, 160 mg QD, Cycle 1 Day 28, +DFMO 500 mg/day",84.8 ng·h/mL
same,AUC(0-t),"clinical; human, plasma, oral, AUC0-6 hr Median, Part 1 Cohort 3, 400 mg QD, Cycle 1 Day 28, +DFMO 500 mg/day",93.8 ng·h/mL
same,AUC(0-t),"clinical; human, plasma, oral, AUC0-6 hr Median, Part 1 Cohort 5, 1800 mg QD, Cycle 1 Day 28, +DFMO 500 mg/day",1430 ng·h/mL
same,AUC(0-t),"clinical; human, plasma, oral, AUC0-t Mean, Part 1 Cohort 1, 80 mg QD, Cycle 1 Day 28, +DFMO 500 mg/day",169 ng·h/mL
same,AUC(0-t),"clinical; human, plasma, oral, AUC0-t Mean, Part 1 Cohort 2, 160 mg QD, Cycle 1 Day 28, +DFMO 500 mg/day",150 ng·h/mL
same,AUC(0-t),"clinical; human, plasma, oral, AUC0-t Mean, Part 1 Cohort 3, 400 mg QD, Cycle 1 Day 28, +DFMO 500 mg/day",791 ng·h/mL
same,AUC(0-t),"clinical; human, plasma, oral, AUC0-t Mean, Part 1 Cohort 5, 1800 mg QD, Cycle 1 Day 28, +DFMO 500 mg/day",7370 ng·h/mL
same,AUC(0-t),"clinical; human, plasma, oral, AUC0-t Median, Part 1 Cohort 1, 80 mg QD, Cycle 1 Day 28, +DFMO 500 mg/day",62.9 ng·h/mL
same,AUC(0-t),"clinical; human, plasma, oral, AUC0-t Median, Part 1 Cohort 2, 160 mg QD, Cycle 1 Day 28, +DFMO 500 mg/day",112 ng·h/mL
same,AUC(0-t),"clinical; human, plasma, oral, AUC0-t Median, Part 1 Cohort 3, 400 mg QD, Cycle 1 Day 28, +DFMO 500 mg/day",422 ng·h/mL
same,AUC(0-t),"clinical; human, plasma, oral, AUC0-t Median, Part 1 Cohort 5, 1800 mg QD, Cycle 1 Day 28, +DFMO 500 mg/day",6920 ng·h/mL
same,Cmax,"clinical; human, plasma, oral, Cmax Mean, Part 1 Cohort 1, 80 mg QD, Cycle 1 Day 28, +DFMO 500 mg/day",16.4 ng/mL
same,Cmax,"clinical; human, plasma, oral, Cmax Mean, Part 1 Cohort 2, 160 mg QD, Cycle 1 Day 28, +DFMO 500 mg/day",23.7 ng/mL
same,Cmax,"clinical; human, plasma, oral, Cmax Mean, Part 1 Cohort 3, 400 mg QD, Cycle 1 Day 28, +DFMO 500 mg/day",55.8 ng/mL
same,Cmax,"clinical; human, plasma, oral, Cmax Mean, Part 1 Cohort 5, 1800 mg QD, Cycle 1 Day 28, +DFMO 500 mg/day",401 ng/mL
same,Cmax,"clinical; human, plasma, oral, Cmax Median, Part 1 Cohort 1, 80 mg QD, Cycle 1 Day 28, +DFMO 500 mg/day",15.1 ng/mL
same,Cmax,"clinical; human, plasma, oral, Cmax Median, Part 1 Cohort 2, 160 mg QD, Cycle 1 Day 28, +DFMO 500 mg/day",23.2 ng/mL
same,Cmax,"clinical; human, plasma, oral, Cmax Median, Part 1 Cohort 3, 400 mg QD, Cycle 1 Day 28, +DFMO 500 mg/day",20.3 ng/mL
same,Cmax,"clinical; human, plasma, oral, Cmax Median, Part 1 Cohort 5, 1800 mg QD, Cycle 1 Day 28, +DFMO 500 mg/day",321 ng/mL
same,Tmax,"clinical; human, plasma, oral, Tmax Mean, Part 1 Cohort 1, 80 mg QD, Cycle 1 Day 28, +DFMO 500 mg/day",11.3 h
same,Tmax,"clinical; human, plasma, oral, Tmax Mean, Part 1 Cohort 2, 160 mg QD, Cycle 1 Day 28, +DFMO 500 mg/day",4.5 h
same,Tmax,"clinical; human, plasma, oral, Tmax Mean, Part 1 Cohort 3, 400 mg QD, Cycle 1 Day 28, +DFMO 500 mg/day",11.3 h
same,Tmax,"clinical; human, plasma, oral, Tmax Mean, Part 1 Cohort 5, 1800 mg QD, Cycle 1 Day 28, +DFMO 500 mg/day",4.67 h
same,Tmax,"clinical; human, plasma, oral, Tmax Median, Part 1 Cohort 1, 80 mg QD, Cycle 1 Day 28, +DFMO 500 mg/day",6 h
same,Tmax,"clinical; human, plasma, oral, Tmax Median, Part 1 Cohort 2, 160 mg QD, Cycle 1 Day 28, +DFMO 500 mg/day",4 h
same,Tmax,"clinical; human, plasma, oral, Tmax Median, Part 1 Cohort 3, 400 mg QD, Cycle 1 Day 28, +DFMO 500 mg/day",6 h
same,Tmax,"clinical; human, plasma, oral, Tmax Median, Part 1 Cohort 5, 1800 mg QD, Cycle 1 Day 28, +DFMO 500 mg/day",4 h
same,Cmax,"clinical; human, plasma, oral, mean Cmax, plasma AMXT 1501, n=9 patients, 1,200 mg daily split BID plus 1,000 mg daily DFMO split BID",493 ng/mL
same,Cmax,"clinical; human, plasma, oral, plasma AMXT 1501 Cmax with no DLTs observed, a couple of adult patients",> 1000 ng/mL
same,Cmax,"clinical; human, plasma, oral, plasma Cmax, AMXT 1501, melanoma patient, 1,200 mg daily split BID plus 1,000 mg daily DFMO",239 ng/mL
same,effect of co-administration of DFMO on PK of AMXT 1501,"clinical; patients, DFMO co-administration",no obvious effect
same,dose dependence of mean AMXT 1501 exposure,"clinical; single or repeat PO dosing, dose levels of 160 mg and higher",increased in a dose-dependent manner
same,plasma AMXT 1501 level achieved,clinical; three patients in First-in-Human trial,"1,000 ng/mL"
same,AUC,"in vivo; plasma, sc",8270 ng·h/mL
same,AUC(0-inf),"in vivo; plasma, sc",8890 ng·h/mL
same,Cmax,"in vivo; plasma, sc",978 ng/mL
same,Kp,"in vivo; tumor and plasma, sc",15.5
same,Kp at 72 h,"in vivo; tumor and plasma, sc",894
same,Kp,"in vivo; tumor and plasma, subcutaneous",18
same,concentration at 72 h,"in vivo; tumor, subcutaneous",~1000 ng/mL
